Like-named read-outs stand apart in the source and are kept apart here.
How the values were obtained:
[1] = rat, in vivo, iv, 1 mg/kg
Method: (§1) Measurement of Maximum Plasma Level (Cmax) and Stationary State Distribution Volume (Vss)
(§2) A compound to be evaluated is weighed, dissolved in WellSolve (trade name; manufactured by Celeste Corporation) which is heated to 60° C. and adjusted to 20 mg/mL; thereafter, the test compound is diluted by 10 times with distilled water for injection, and further diluted by 2 times with saline solution, by which intravenously administered solution is eventually made. A compound to be evaluated is dissolved in WellSolve which is heated to 60° C. and adjusted to 50 mg/mL; thereafter, the compound to be evaluated is diluted with distilled water for injection and adjusted to 1 mg/mL. Five compounds (one set) were mixed in the same amount and adjusted to final concentration of 0.2 mg/mL per one compound, by which orally administered solution is eventually made. […] The administration is conducted under fasting conditions; water is freely ingested. In the case of intravenous administration, a 0.35 mL of blood sample is taken from cervical vein by using Heparinized Syringe at 5 minutes, 15 minutes, 30 minutes, 1 hour, 2 hours, 4 hours, 6 hours, 8 hours, and 24 hours after administration. […] The obtained blood is stored in ice, and after centrifugation at 12,000 rpm for 3 minutes, blood plasma is fractionated. In the case of intravenous administration, the blood plasma sample preserved at a temperature of −80° C. is dissolved; inner standard solution (100 μL) and acetonitrile (2 mL) are added to the blood plasma sample (100 μL) and stirred, and the sample is centrifuged at 2,500 rpm for 10 minutes.
(§3) After the supernatant centrifuged is evaporated to dryness by means of a centrifugal concentrator, 67% dimethyl sulfoxide solution (150 μL) is added to the residue and dissolves them again and 20 μL of the solution is analyzed by means of LC/MS/MS.
(§4) Measurement device: Waters 2795 (manufactured by Waters Corporation) Analytical column: Unison UK-C18, 3.0 μm particle size, 2.0 mm×30 mm (manufactured by Imtakt Corporation) Analytical column temperature: Room temperature Flow rate: 200 μL/min Moving bed: 5 mM IPC-PFAA-7 solution/acetonitrile (9/1→1/9)
(§5) Measurement device: Quatro micro API (manufactured by Micromass Communications Inc.) Scan type: MPM
(§6) The monitor ion which was suitable for each sample was selected.
(§7) A portion of the compound to be intravenously administered was subjected to the following treatment. The blood plasma sample preserved at a temperature of −80° C. is dissolved; inner standard solution (50 μL) and acetonitrile (1 mL) are added to the blood plasma sample (50 μL) and stirred, and the sample is centrifuged at 3,000 rpm for 10 minutes. After the supernatant is evaporated to dryness by means of a centrifugal concentrator, the residue was redissolved in water/acetonitrile (1/1) and the solution is analyzed by means of LC/MS/MS under the following conditions.
(§8) Measurement device: 1200 series system (manufactured by Agilent Technologies) Analytical column: Asahipak OOD-50 2D, 2×150 mm (manufactured by Showa Denko K.K.) Analytical column temperature: Room temperature Moving bed: 5 mM IPC—PFAA-7 solution/acetonitrile (gradient) Flow rate: 200 μL/min

[2] = system: CHL/IU (cell line derived from a Chinese hamster lung); assay: Phospholipidosis detecting system using fluorescent labeling phospholipid analog (NBD-PE); format: cell-based
Method: Investigation with Phospholipidosis Detecting System using Fluorescent Labeling Phospholipidosis Analog under Severity Condition (1) Phospholipid Accumulation Measurement 100 μL/well as required (1 dose 2 wells) of cell suspension of CHL/IU (cell line derived from a Chinese hamster lung) (7×10^4 cells/mL) prepared by MEM (minimum essential medium) culture medium was added to a 96-well plate (96-well clear-bottom plate), and cultured for about 24 hours. After culture, the supernatant of the 96-well plate was removed, and the 100 μL/well compounds of each concentration dissolved and suspended in an MEM including 25 μmol/L nitrobenzoxadiazole dipalmitoyl phosphatidylethanolamine (NBD-PE) (hereinafter abbreviated as a NPD-PE medium) were added and treated for about 48 hours. The treatment concentrations of each compound were set to be 5, 50, 100 and 200 μM. The positive control substance was set to be amiodarone hydrochloride, and the treatment concentrations were set to be 1.25, 2.5, 5, 10 and 20 μM. In addition, 5-well untreated controls (only MEM) and 5-well NBD-PE controls (made by means of adding a 1/100 amount of DMSO to the NBD-PE culture medium) were set per compound, and cultured in the same manner. After finishing the culture, the cultures were washed twice with phosphate buffered saline (hereinafter abbreviated as PBS) (−) 100 μL/well, and the MEM (100 μL) was added to all of the treatment wells including two empty wells for WST-1 background controls and cultured for about a half hour. The fluorescence intensities of each well were measured by using a microplate reader (manufactured by Molecular Devices Inc., SPECTRA max M2; the excitation wavelength 485 nm/fluorescence wavelength 535 nm). (2) Analysis Using the average values of each dose×2 wells, a phospholipid increase rate (%) to the NBD-PE control was calculated by using the following calculating formula: Rate of increase of phospholipid accumulation (%)=100×{(test compound fluorescence intensity−non-treated control fluorescence intensity)/(NBD-PE control fluorescence intensity−non-treated control fluorescence intensity)} [Equation 2] (3) Cytotoxicity Assay 96-well plate measured in the phospholipid accumulation measurement was measured by means of Plate Reader (manufactured by Molecular Devices Inc., SPECTRA max M2) with the main wavelength of 450 nm and the correct wavelength of 690 nm to calculate a Pre value. An amount of 5 μL/well of Premix WS T-1 was added to each of the 96-hole plates by which Pre measurement was conducted. After culture for 2 to 4 hours, the 96-well plate was measured as well as the Pre measurement to calculate an Aft value. Then, the background control value was subtracted from the each measured value. A value which was calculated by subtracting the Pre value from the Aft value was used, then the cell growth rate (%) was calculated by using the following calculating formula: Cell growth rate (%)=100×[(test substance OD)/(NBD-PE control OD)] [Equation 3] (4) Determination A test dose that indicated value of 25% or more of the maximum phospholipid accumulation increase rate of amiodarone which was the positive control was determined as positive. In addition, the dose whose cell growth rate was equal to or less than 50% in the cytotoxicity assay was not used for determination of existence or nonexistence of a phospholipidosis inductive effect.

[3] = Measurement of maximum plasma level (Cmax) and stationary state distribution volume (Vss); conditions: male, Crl:CD(SD), rat, iv, 1 mg/kg
Method: as §1, §2, §3, §4, §5, §6, §7, §8

[4] = Artificial lipid membrane binding using Biacore S51 system
Method: Artificial Lipid Membrane Binding Account by using Biacore® S51 System
10 mM of 1,2-dioleoyl-sn-glycero-3-phosphate monosodium salt (hereinafter abbreviated as DOPA) chloroform solution was evaporated to dryness by means of an aspirator, and 0.6 mL of PBS/5% dimethyl sulfoxide (hereinafter abbreviated as DMSO) was added. The chloroform solution was fully suspended by means of a vortex mixer, and the freezing and thawing were repeated for 5 times. Liposome was created by means of a liposome preparation instrument (manufactured by Avestin Inc.) and two syringes, and was diluted to 0.5 mM with PBS/5% DMSO just prior to immobilization.
(2) Measurement Compound Preparation
38 μl of 1×PBS is added to 2 μl of a DMSO solution (10 mM), and further the 360 μl of 1×PBS/5% DMSO was added and the 50 μM of final concentration in PBS/5% DMSO was prepared and measured.
All of the following analysis used Biacore® S51 system and the measurement conditions were set by Biacore S51 Control Soft.
The measurement temperature was set to be 37° C., and PBS/5% DMSO (pH 7.4 or 6.0) was used as a buffer. Series S Sensor Chip L1 was used for a sensor chip. DOPA was immobilized in one of the measuring spots on the sensor surface and the central spot was used as a reference.
Immobilization of liposome was conducted at a flow rate of 10 μL/min for about 3 minutes and then the compound was added at a flow rate of 30 μL/min and the interaction was measured. The measurement conditions are as follows:
Assay buffer: PBS/5% DMSO (pH 7.4) Measurement temperature: 37° C. Sensor chip: Series S Sensor Chip L1 Flow rate: 10 μL/min at the time of the liposome immobilization; 30 μL/min at the time of the measurement of interaction with the compound Regeneration: 20 mM CHAPS (3-[(3-cholamidopropyl)dimethylammonio]-1-propanesulfonate), isopropylalcohol/aqueous 50 mM sodium hydroxide solution=40/60 (volume ratio) mixture solution (60 seconds)
The data processing was conducted by means of method of Abdiche et al., (Analytical biochemistry, 328, 233-243 (2004)) by using Biacore S51 Evaluation Soft.
Regarding the value of binding response (RU) in which the value of reference was subtracted, it was divided by a sample molecular weight after minute error of the DMSO concentration included in the sample solution was corrected. In addition, the value obtained here was divided by an amount of capture at the time of the cycle because the value obtained here was proportional to the amount of capture of the liposome and the value was multiplied by a million to be considered as a corrected value (Corrected value=1,000,000×RU (test compound)/molecular quantity (test compound) RU (liposome)).
The compound wherein a value of the binding response after the correction was 150 or more was determined as positive.

[5] = target: T1, CXCR4 (human T cell strain CEM cells) (Homo sapiens, UniProt P61073); assay: Inhibition of binding human SDF-1 to CEM cells (125I-SDF-1); conditions: 4° C., 60 minutes
T1 construct: a human T cell strain in which CXCR4 is known to be expressed; endogenous in cells; host or cells: CEM cells (human T cell strain)
Method: Specifically, as a system of screening a compound that inhibits the binding between SDF-1 and CXCR4, for example a system of measuring the binding between iodine-labeled SDF-1 and a human T cell strain in which CXCR4 is known to be expressed is operable.
Study for Inhibition of Binding Human SDF-1 to CEM Cells
To human T cell strain CEM cells in a binding buffer (containing HEPES and BSA), the test compound and ^125I-SDF-1 (PerkinElmer) were added and the mixture was incubated at 4° C. for 60 minutes. The reacted CEM cells were rapidly filtrated with a GF/B membrane filter plate (Packard) to adsorb. The plate was washed with phosphate buffered saline (hereinafter abbreviated to PBS) three times and then dried. Microscint+20 (Packard) was added thereto. An amount of the radioactivity bound to the CEM cells was measured using Top Count (Packard) and inhibition (%) of the test compound was calculated according to the following equation:
Inhibition={(Et−Ea)/(Et−Ec)}×100 [Equation 1]
Et: Amount of radioactivity when the test compound is not added,
Ec: Amount of radioactivity when non-radioactive SDF-1 (Pepro Tech) is added in an amount of 1,000 times as much as ^125I-SDF-1 as a test compound, and
Ea: Amount of radioactivity when the test compound is added.

T1 sequence (P61073 whole entry): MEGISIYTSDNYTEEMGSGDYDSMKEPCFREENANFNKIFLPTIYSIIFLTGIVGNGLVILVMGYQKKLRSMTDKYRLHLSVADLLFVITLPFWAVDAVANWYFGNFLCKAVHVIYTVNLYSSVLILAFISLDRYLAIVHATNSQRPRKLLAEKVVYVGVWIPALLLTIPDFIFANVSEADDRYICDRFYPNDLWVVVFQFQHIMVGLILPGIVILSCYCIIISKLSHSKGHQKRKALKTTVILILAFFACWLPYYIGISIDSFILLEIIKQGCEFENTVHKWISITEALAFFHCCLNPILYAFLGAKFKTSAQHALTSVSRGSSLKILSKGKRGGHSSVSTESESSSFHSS

| Distribution volume (L/kg) (stationary state distribution volume, Vss) [1] | Vd [3] [L/kg] | Value of binding response (RU) ([4]; DOPA liposome, 50 μM compound, PBS/5% DMSO pH 7.4, 37° C., corrected value) | Determination (artificial lipid membrane binding) ([4]; positive = corrected binding response 150 or more) | IC50 [5] [nM] | SMILES | Determination (phospholipidosis, NBD-PE system) [2] | Rate of increase of phospholipid accumulation (%) (compound dose: 200 μM) ([2]; CHL/IU cells, compound dose 200 μM, about 48 hours, relative to NBD-PE control) | Determination (phospholipidosis, NBD-PE system) ([2]; positive = 25% or more of the maximum increase rate of amiodarone) |
| --- | --- | --- | --- | --- | --- | --- | --- | --- |
| 0.90 | – | – | – | – | CC(C)CN1CCC2(CC1)CCN(CCCn1ccnc1CN(CCCC(=O)O)Cc1ncc[nH]1)C2 [Example 22(3), 4-[(1H-imidazol-2-ylmethyl)({1-[3-(8-isobutyl-2,8-diazaspiro[4.5]deca-2-yl)propyl]-1H-imidazol-2-yl}methyl)amino]butanoic acid] | Negative | – | – |
| – | 0.42 | 41.2 | Negative | 6.3 | CCC(CC)N1CCC2(CCN(CCCn3ccnc3CN(Cc3cccc(OCC(=O)O)c3)Cc3ncc[nH]3)C2)CC1 [Example 43(1), [3-({[(1-{3-[8-(1-ethylpropyl)-2,8-diazaspiro[4.5]deca-2-yl]propyl}-1H-imidazol-2-yl)methyl](1H-imidazol-2-ylmethyl)amino}methyl)phenoxy]acetic acid] | – | 14 | Negative |
